Results reported in PMC2990756, “Quantitative High-Throughput Screening Identifies 8-Hydroxyquinolines as Cell-Active Histone Demethylase Inhibitors” (PLoS ONE, 2010).
Like-named read-outs stand apart in the source and are kept apart here.

What was measured:
Assay type in all cases: biochemical
JMJD2E = molecular target: T1, JMJD2E (Homo sapiens, UniProt B2RXH2); assay: JMJD2E FDH-coupled assay under low and high iron conditions (iron chelation profile); design: The catalytic domain of human JMJD2E (residues 1–337); His6 (N); made in house; host or cells: E. coli; details: Table S1; for IC50: unit not in table, from Figure 2
T1 sequence (B2RXH2 1-337): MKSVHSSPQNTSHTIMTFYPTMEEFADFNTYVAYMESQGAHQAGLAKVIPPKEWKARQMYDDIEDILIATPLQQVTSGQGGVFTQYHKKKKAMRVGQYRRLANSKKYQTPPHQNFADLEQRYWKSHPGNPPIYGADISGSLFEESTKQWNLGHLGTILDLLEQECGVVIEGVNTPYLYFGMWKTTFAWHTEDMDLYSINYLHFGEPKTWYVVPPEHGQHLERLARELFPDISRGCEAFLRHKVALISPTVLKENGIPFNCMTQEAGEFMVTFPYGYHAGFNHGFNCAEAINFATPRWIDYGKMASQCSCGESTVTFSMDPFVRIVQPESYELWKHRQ
Description: The prioritized compounds were also evaluated in the screening assay using two different ferrous ion concentrations (termed high iron and low iron, respectively), in order to assess their propensity for iron chelation.
The ratio of IC50 values under high iron to low iron was calculated for each compound.

JMJD2E (KDM4E) = molecular target: T2, JMJD2E (KDM4E) (Homo sapiens, UniProt B2RXH2); assay: qHTS fluorescence FDH-coupled JMJD2E demethylase assay
T2 construct: The catalytic domain of human JMJD2E (residues 1–337); His6 (N); made in house; host or cells: E. coli
T2 sequence (B2RXH2 1-337): T1 sequence (B2RXH2 1-337)

[1] = molecular target: T3, formaldehyde dehydrogenase (FDH) (Pseudomonas putida, UniProt P46154); assay: FDH coupling enzyme counterscreen; details: Table S1, FDH counterscreen; for IC50: unit not in table, from Figure 2, read-out: qHTS Data: jmjd2e fdh IC50
T3 construct: purchased Sigma-Aldrich
T3 sequence (P46154 whole entry): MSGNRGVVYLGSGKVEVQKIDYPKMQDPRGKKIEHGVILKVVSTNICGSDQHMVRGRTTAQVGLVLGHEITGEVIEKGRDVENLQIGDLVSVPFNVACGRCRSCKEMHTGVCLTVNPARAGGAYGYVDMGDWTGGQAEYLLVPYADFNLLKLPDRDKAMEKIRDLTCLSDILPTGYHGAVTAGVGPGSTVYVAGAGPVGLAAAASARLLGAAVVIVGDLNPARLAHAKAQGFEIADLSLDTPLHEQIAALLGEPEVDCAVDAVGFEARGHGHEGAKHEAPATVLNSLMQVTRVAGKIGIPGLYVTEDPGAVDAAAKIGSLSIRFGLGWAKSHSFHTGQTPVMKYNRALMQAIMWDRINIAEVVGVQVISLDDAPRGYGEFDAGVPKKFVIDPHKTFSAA
Excerpt: Dimethylsulfoxide certified ACS grade (DMSO) was from Fisher, Inc. HEPES buffer was obtained from Gibco. […] Black solid-bottom 1,536-well assay plates were from Greiner Bio-One (Monroe, NC).

[2] = high iron, head says 20 µM FAS, read-out: qHTS Data: jmjd2e fas20um IC50
[3] = low iron 2.5 µM FAS, read-out: qHTS Data: jmjd2e fas2.5um IC50
[4] = Table S1, unit not in table, from Figure 2, read-out: qHTS Data: jmjd2e IC50

Row | Structure (SMILES) | IC50 (JMJD2E; [2]) | IC50 (JMJD2E; [3]) | IC50 (JMJD2E (KDM4E); [4]) | qHTS Data: jmjd2e fdh CurveClass [1] | qHTS Data: jmjd2e fas2.5um Curve comment (JMJD2E; low iron 2.5 µM FAS) | IC50 [1] | qHTS Data: jmjd2e fas20um CurveClass (JMJD2E; high iron) | IC50 (JMJD2E (KDM4E); Figure 3, substituted 8-hydroxyquinolines against JMJD2E, read-out: IC50 /μM (qHTS IC50, FDH-coupled assay))
1 | N[C@H](Cc1ccc(O)c(O)c1)C(=O)O [compound 50106235] | 12.6 µM | 12.6 µM | 17.8 µM | Inactive | – | – | – | –
2 | CCN(CC)c1ccc(N=Cc2c(C)[nH]c3ccccc23)cc1 [compound 22412852] | 7.94 µM | 12.6 µM | 0.79 µM | Inactive | Poor quality curve | – | – | –
3 | CN(C)C1C(=O)C(C(N)=O)=C(O)[C@@]2(O)C(=O)C3=C(O)c4c(O)cccc4[C@@](C)(O)C3CC12.Cl (stereo partly drawn) [compound 26748266] | 1.78 µM | 15.8 µM | 2.51 µM | Poor quality curve | – | 15.8 µM | – | –
4 | CN1CC[C@]2(C)c3cc(O)ccc3N(C)[C@@H]12 [compound 11112885] | 7.08 µM | 8.91 µM | 2.24 µM | Inconclusive | – | – | – | –
5 | CCOC(=O)Cc1csc(-n2sc3ccccc3c2=O)n1 [compound 3716597] | – | 7.08 µM | 10 µM | Inactive | – | – | Inactive | –
6 | CN(N=O)c1ccc(O)c(O)c1 [compound 50106719] | – | 7.94 µM | 10 µM | Poor quality curve | – | 31.6 µM | Inactive | –
7 | Oc1cc2c(cc1O)C1c3ccc(O)c(O)c3OCC1(O)C2 (stereo not drawn) [compound 26749470] | 14.1 µM | 1.58 µM | 0.71 µM | Inactive | – | – | Poor quality curve | –
8 | Oc1c(C(Nc2nccs2)c2ccc(C(F)(F)F)cc2)ccc2cccnc12 (stereo not drawn) [compound 24832893] | 12.6 µM | 28.2 µM | 3.55 µM | Inactive | – | – | – | –
9 | COc1ccccc1NC(=S)NNC(=O)c1nn(C)c(C)c1Br [compound 22404294] | 2.51 µM | 3.98 µM | 7.94 µM | Inactive | – | – | – | –
10 | COc1ccc(N2C(=O)CC(Sc3ncn[nH]3)C2=O)c(OC)c1 (stereo not drawn) [compound 7974422] | 35.5 µM | 1.41 µM | 2.82 µM | – | – | 0.32 µM | Poor quality curve | –
11 | CCOC(=O)C1CCN(Cc2ccc(O)c3ncccc23)CC1 [compound 850072] | 2 µM | 4.47 µM | 8.91 µM | Inconclusive | – | – | – | –
12 | Cc1nc(-c2coc3c(O)c(O)ccc3c2=O)cs1 [compound 50110018] | 15.8 µM | 7.08 µM | 7.08 µM | Poor quality curve | – | 17.8 µM | – | –
13 | COC(=O)c1cc(=O)c(O)c2c(O)c(O)ccc2c1 [compound 26749939] | 22.4 µM | 7.94 µM | 8.91 µM | Inactive | – | – | – | –
14 | O=C(O)c1cccnc1C(=O)O [compound 11113416] | 11.2 µM | 7.94 µM | 1.78 µM | Inactive | – | – | – | –
15 | O=C(NO)c1ccccc1O [compound 855524] | – | 12.6 µM | 10 µM | Poor quality curve | – | 3.55 µM | Inactive | –
16 | C[C@H](N)[C@H](O)c1ccc(O)c(O)c1 [compound 11112447] | 2.24 µM | 3.98 µM | 4.47 µM | Inactive | – | – | – | –
17 | CN[C@@H](C)[C@H](O)c1ccccc1.CN[C@@H](C)[C@H](O)c1ccccc1.O=S(=O)(O)O [compound 50106282] | 7.94 µM | 2.24 µM | 3.55 µM | Poor quality curve | – | 12.6 µM | 1.2 | –
18 | CN(C)[C@H]1C(=O)C(C(=O)NCN[C@@H](CCCCN)C(=O)O)=C(O)[C@]2(O)C(=O)C3=C(O)c4c(O)cccc4[C@@](C)(O)[C@H]3C[C@@H]12 [compound 11112463] | 15.8 µM | 14.1 µM | 8.91 µM | Inactive | – | – | – | –
19 | C=CCc1c(C)nc(C)nc1N/N=C/c1ccccc1O [compound 14741635] | – | 3.16 µM | 3.16 µM | Inactive | – | – | Inactive | –

Row | Structure (SMILES) | IC50 (JMJD2E; [2]) | IC50 (JMJD2E; [3]) | IC50 (JMJD2E (KDM4E); [4]) | qHTS Data: jmjd2e fdh CurveClass [1] | qHTS Data: jmjd2e fas2.5um Curve comment (JMJD2E; low iron 2.5 µM FAS) | IC50 [1] | qHTS Data: jmjd2e fas20um CurveClass (JMJD2E; high iron) | IC50 (JMJD2E (KDM4E); Figure 3, substituted 8-hydroxyquinolines against JMJD2E, read-out: IC50 /μM (qHTS IC50, FDH-coupled assay))
20 | COc1ccc(-c2cc(=O)n(CCC#N)[nH]2)cc1 [compound 17508964] | 12.6 µM | – | 1.78 µM | Inactive | Inactive | – | – | –
21 | O=C(CSc1ncn[nH]1)CSc1ncn[nH]1 [compound 24783149] | – | 6.31 µM | 3.55 µM | – | – | 1 µM | Inactive | –
22 | O=c1c(-c2cc(O)c(O)c(O)c2)coc2cc(O)c(O)c(O)c12 [compound 26749510] | 14.1 µM | 1 µM | 2.82 µM | – | – | 3.98 µM | – | –
23 | Cl.Nc1ccn([C@@H]2O[C@H](CO)[C@@H](O)[C@@H]2O)c(=O)n1 [compound 50106080] | 7.94 µM | – | 0.89 µM | Inactive | Inactive | – | – | –
24 | O=C1C=CC2=C3c4cc(O)c(O)cc4CC3(O)COC2=C1O (stereo not drawn) [compound 26749676] | 17.8 µM | 2 µM | 6.31 µM | – | – | 11.2 µM | Poor quality curve | –
25 | O=C(/C=C/c1ccccc1)NC(=S)NNC(=O)c1cnccn1 [compound 26725782] | 7.08 µM | 7.08 µM | 8.91 µM | Poor quality curve | – | 35.5 µM | – | –
26 | CNC[C@H](O)c1ccc(O)c(O)c1 [compound 26754418] | 12.6 µM | 5.01 µM | 7.08 µM | Inconclusive | – | – | – | –
27 | O=C(OCC1O[C@@H](OC(=O)c2cc(O)c(O)c(O)c2)[C@@H](OC(=O)c2cc(O)c(O)c(O)c2)[C@@H](OC(=O)c2cc(O)c(O)c(O)c2)[C@@H]1OC(=O)c1cc(O)c(O)c(O)c1)c1cc(O)c(O)c(O)c1 (stereo partly drawn) [compound 22405492] | 14.1 µM | 1.12 µM | 3.16 µM | Inactive | – | – | – | –
28 | Oc1ccc(CNc2ccccc2)c2cccnc12 [compound 842629] | 14.1 µM | 1.26 µM | 8.91 µM | Inactive | – | – | – | 8.9 µM
29 | O=C(O)c1cccc(C(=O)O)n1 [compound 863941] | 7.94 µM | 2.82 µM | 8.91 µM | Inactive | – | – | – | –
30 | NCC(O)c1ccc(O)c(O)c1.O=C(O)C(O)C(O)C(=O)O (stereo not drawn) [compound 50105780] | 2 µM | 4.47 µM | 12.6 µM | Inactive | – | – | – | –
31 | NC(=O)c1ccc(-n2nnnc2SCC(=O)c2ccc(O)c(O)c2)cc1 [compound 24821381] | – | 7.94 µM | 0.71 µM | Inactive | – | – | Inactive | –
32 | Cl.NCCc1cc(O)c(O)cc1O [compound 26748180] | 7.94 µM | 2.51 µM | 6.31 µM | Poor quality curve | – | – | – | –
33 | Oc1ccc(CN2CCCc3ccccc32)c2cccnc12 [compound 4249321] | – | 1.26 µM | 8.91 µM | Inactive | – | – | Inactive | –
34 | Cc1ccc(C)c(S(=O)(=O)N2CCN(Cc3ccc(O)c4ncccc34)CC2)c1 [compound 24838962] | – | 10 µM | 3.55 µM | Inconclusive | – | – | Inactive | –
35 | C[C@@H]1Cc2c(O)c(O)cc(O)c2C(=O)O1 [compound 26657786] | – | 3.55 µM | 2 µM | Inactive | – | – | Inactive | –
36 | Oc1ccccc1O [compound 50105556] | 14.1 µM | 10 µM | 14.1 µM | Inactive | – | – | Poor quality curve | –
37 | Cc1cc2c(C(C)C)c(O)c(O)c(C=O)c2c(O)c1-c1c(C)cc2c(C(C)C)c(O)c(O)c(C=O)c2c1O [compound 11112318] | 15.8 µM | 1.12 µM | 7.94 µM | – | – | 31.6 µM | – | –
38 | Oc1cc(O)c2c(c1)OC(c1cc(O)c(O)c(O)c1)C(O)C2 (stereo not drawn) [compound 26749553] | 3.16 µM | 2.82 µM | 1.41 µM | – | – | – | Poor quality curve | –
